Data: the Kinase Knowledgebase extract (Sharma et al. 2016)

Experiments:
PIK3CD (Human) = PIK3CD (Human) (UniProt O00329); assay: Assessment of PIK3CD Kinase Activity
PIK3CG (human) = PIK3CG (human) (UniProt P48736); assay: Assessment of PIK3CG Kinase Activity
PIK3CB (Human) = PIK3CB (Human) (UniProt P42338); assay: Assessment of PIK3CB Kinase Activity
PIK3CA (human) = PIK3CA (human) (UniProt P42336); assay: Assessment of PIK3CA Kinase Activity
PIK3CA (human), sequence (P42336 whole entry, looked up): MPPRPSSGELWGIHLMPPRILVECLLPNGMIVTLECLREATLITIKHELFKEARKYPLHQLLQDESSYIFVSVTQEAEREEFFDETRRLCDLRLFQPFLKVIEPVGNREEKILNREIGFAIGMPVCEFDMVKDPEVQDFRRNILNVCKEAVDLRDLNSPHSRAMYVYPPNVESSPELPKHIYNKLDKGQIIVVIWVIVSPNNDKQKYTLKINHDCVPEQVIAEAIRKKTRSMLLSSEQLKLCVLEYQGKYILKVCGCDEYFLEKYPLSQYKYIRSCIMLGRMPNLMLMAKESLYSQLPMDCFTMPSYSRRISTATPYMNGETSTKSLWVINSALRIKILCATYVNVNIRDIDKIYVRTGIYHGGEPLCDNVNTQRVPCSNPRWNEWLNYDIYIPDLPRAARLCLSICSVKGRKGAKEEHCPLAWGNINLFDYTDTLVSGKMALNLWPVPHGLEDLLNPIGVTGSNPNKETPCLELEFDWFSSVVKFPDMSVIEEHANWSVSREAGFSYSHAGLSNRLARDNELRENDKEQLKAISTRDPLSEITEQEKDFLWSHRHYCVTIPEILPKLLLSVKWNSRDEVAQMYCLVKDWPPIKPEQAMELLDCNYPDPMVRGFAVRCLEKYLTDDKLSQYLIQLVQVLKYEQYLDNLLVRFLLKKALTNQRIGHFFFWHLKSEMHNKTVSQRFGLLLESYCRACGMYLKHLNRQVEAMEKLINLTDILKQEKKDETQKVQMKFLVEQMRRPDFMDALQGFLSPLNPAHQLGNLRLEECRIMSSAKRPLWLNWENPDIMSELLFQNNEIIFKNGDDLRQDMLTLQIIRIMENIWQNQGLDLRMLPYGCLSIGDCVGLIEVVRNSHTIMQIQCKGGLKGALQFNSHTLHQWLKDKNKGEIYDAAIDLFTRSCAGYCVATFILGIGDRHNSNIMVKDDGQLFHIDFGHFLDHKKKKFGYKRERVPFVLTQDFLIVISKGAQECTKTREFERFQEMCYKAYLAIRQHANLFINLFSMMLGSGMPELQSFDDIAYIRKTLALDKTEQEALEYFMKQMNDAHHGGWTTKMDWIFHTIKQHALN

PIK3CD (Human), sequence (O00329 whole entry, looked up): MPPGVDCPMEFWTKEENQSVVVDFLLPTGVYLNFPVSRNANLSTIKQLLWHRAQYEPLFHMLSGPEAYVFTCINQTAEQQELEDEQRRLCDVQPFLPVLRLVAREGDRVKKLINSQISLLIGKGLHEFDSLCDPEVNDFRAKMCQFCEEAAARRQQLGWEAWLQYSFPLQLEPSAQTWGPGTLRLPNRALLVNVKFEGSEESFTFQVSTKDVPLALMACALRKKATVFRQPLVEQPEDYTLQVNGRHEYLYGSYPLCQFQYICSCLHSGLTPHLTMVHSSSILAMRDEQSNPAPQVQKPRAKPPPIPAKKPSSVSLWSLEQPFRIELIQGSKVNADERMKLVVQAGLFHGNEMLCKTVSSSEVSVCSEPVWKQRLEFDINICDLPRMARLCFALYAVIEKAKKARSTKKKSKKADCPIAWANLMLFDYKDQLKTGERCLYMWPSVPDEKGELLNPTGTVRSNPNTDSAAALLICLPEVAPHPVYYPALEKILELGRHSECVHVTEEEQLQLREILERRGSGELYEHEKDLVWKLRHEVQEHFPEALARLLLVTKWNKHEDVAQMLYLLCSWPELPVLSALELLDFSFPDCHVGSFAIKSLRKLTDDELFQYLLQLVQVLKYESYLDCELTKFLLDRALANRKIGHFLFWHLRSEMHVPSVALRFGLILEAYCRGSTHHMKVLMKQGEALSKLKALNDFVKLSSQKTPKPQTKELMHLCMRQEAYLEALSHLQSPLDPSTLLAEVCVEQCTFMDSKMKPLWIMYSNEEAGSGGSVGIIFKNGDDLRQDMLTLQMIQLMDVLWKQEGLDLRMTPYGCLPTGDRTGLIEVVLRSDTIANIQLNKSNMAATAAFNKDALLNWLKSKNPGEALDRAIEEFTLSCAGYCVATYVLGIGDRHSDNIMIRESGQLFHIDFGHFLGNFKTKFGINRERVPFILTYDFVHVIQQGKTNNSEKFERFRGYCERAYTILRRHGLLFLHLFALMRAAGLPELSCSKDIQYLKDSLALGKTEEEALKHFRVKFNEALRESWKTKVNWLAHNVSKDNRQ
PIK3CG (human), sequence (P48736 whole entry, looked up): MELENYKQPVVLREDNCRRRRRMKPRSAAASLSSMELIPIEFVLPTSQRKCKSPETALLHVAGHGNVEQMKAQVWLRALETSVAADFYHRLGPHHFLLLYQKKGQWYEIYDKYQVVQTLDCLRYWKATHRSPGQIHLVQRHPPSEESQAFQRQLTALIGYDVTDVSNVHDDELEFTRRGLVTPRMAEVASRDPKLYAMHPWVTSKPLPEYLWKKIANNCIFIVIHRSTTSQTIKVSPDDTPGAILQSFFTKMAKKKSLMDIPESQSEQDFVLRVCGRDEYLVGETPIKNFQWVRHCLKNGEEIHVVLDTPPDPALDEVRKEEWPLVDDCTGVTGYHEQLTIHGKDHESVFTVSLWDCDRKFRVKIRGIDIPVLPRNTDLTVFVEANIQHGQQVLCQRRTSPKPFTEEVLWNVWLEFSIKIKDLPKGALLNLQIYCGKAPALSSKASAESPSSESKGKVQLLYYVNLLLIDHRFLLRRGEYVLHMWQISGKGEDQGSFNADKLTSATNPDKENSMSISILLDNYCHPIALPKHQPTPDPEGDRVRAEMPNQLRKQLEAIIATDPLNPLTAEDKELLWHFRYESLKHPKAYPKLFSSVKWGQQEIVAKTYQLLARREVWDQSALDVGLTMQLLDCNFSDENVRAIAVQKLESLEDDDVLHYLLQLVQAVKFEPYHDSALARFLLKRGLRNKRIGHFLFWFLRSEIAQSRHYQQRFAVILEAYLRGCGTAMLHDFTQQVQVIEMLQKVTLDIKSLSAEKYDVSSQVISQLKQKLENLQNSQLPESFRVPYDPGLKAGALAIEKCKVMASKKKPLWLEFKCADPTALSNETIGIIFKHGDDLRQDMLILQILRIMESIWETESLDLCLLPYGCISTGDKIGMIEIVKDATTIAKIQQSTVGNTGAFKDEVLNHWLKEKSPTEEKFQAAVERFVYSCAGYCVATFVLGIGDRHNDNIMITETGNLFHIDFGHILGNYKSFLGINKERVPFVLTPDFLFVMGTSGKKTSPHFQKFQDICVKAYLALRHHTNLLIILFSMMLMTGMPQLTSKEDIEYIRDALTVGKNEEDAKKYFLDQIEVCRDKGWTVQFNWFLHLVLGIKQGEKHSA
PIK3CB (Human), sequence (P42338 whole entry, looked up): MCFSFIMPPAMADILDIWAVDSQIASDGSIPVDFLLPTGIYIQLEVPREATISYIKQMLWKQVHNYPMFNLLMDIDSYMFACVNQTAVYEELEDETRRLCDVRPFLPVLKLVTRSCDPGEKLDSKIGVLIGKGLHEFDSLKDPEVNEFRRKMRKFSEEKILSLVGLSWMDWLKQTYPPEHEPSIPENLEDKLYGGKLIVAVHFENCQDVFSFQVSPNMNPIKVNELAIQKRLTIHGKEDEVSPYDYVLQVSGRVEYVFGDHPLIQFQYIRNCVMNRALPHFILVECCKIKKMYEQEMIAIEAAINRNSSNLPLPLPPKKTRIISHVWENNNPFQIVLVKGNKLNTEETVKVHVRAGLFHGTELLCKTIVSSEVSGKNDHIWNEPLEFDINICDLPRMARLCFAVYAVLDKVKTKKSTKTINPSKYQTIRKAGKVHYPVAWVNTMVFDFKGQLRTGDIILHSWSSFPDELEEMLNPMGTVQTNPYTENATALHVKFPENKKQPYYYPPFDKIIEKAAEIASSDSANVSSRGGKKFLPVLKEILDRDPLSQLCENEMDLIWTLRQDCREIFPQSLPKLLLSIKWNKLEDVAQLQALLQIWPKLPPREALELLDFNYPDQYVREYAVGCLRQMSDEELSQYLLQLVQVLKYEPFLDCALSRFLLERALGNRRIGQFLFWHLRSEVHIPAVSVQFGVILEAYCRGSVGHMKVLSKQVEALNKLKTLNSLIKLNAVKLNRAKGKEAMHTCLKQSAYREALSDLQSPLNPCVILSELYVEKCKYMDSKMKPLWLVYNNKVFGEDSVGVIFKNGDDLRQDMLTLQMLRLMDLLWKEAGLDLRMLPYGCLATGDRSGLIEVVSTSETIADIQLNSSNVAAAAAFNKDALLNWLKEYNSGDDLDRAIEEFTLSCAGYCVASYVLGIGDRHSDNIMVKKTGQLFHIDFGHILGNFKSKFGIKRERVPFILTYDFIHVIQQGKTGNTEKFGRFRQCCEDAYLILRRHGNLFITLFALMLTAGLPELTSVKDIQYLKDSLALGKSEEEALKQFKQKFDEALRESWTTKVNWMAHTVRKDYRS

IC50 (PIK3CA (human)) [nM] | SMILES | further results
< 100 | CNc1ccc(-c2nc(N3CCOCC3)c3sc(CN(C)c4ncc(C(=O)NO)cn4)cc3n2)cn1 | IC50 (PIK3CD (Human)): < 100 nM; IC50 (PIK3CG (human)): 100 to 1000 nM; IC50 (PIK3CB (Human)): 100 to 1000 nM
> 10000 | CCN(CC)c1nc(-c2cccc3[nH]ncc23)nc2cc(CN(C)c3ncc(C(=O)NO)cn3)sc12 | 
> 10000 | CN(Cc1cc2nc(-c3ccc4c(c3)CCN4)nc(N3CCOCC3)c2s1)c1ncc(C(=O)NO)cn1 | 
< 100 | Nc1ncc(-c2nc(N3CCOCC3)c3sc(NCCCCCCC(=O)NO)cc3n2)cn1 | 
100 to 1000 | COc1ncc(-c2nc(N3CCOCC3)c3sc(C(C)(C)N(C)c4ncc(C(=O)NO)cn4)cc3n2)cn1 | 
> 10000 | COCCNc1nc(-c2cccc3[nH]ncc23)nc2cc(CN(C)c3ncc(C(=O)NO)cn3)sc12 | 
> 10000 | CN(Cc1cc2nc(-c3ccc4c(c3)NC(=O)CO4)nc(N3CCOCC3)c2s1)c1ncc(C(=O)NO)cn1 | 
< 100 | CNc1ccc(-c2nc(N3CCOCC3)c3sc(C(=O)NCC4CCN(c5ncc(C(=O)NO)cn5)CC4)cc3n2)cn1 | 
100 to 1000 | CN(Cc1cc2nc(-c3cccc(SCCO)c3)nc(N3CCOCC3)c2s1)c1ncc(C(=O)NO)cn1 | 
< 100 | CN(Cc1cc2nc(-c3ccc([N+](=O)[O-])c(O)c3)nc(N3CCOCC3)c2s1)c1ncc(C(=O)NO)cn1 | 
> 10000 | CN(Cc1cc2nc(-c3ccc(F)cc3)nc(N3CCOCC3)c2s1)c1ncc(C(=O)NO)cn1 | 
< 100 | CN(c1ncc(C(=O)NO)cn1)c1cc2nc(-c3ccc(N)cc3)nc(N3CCOCC3)c2s1 | 
> 10000 | CNCCOc1ccc(-c2nc(N3CCOCC3)c3sc(CN(C)c4ncc(C(=O)NO)cn4)cc3n2)cn1 | 
> 10000 | CN(Cc1cc2nc(-c3cccc(C(C)(C)O)c3)nc(N3CCOCC3)c2s1)c1ncc(C(=O)NO)cn1 | 
100 to 1000 | CN(Cc1cc2nc(-c3ccc(N)cc3F)nc(N3CCOCC3)c2s1)c1ncc(C(=O)NO)cn1 | 
100 to 1000 | C[C@@H](O)c1cccc(-c2nc(N3CCOCC3)c3sc(CN(C)c4ncc(C(=O)NO)cn4)cc3n2)c1 | 
100 to 1000 | CS(=O)(=O)N1CCN(Cc2cc3nc(-c4ccc(OCCCCCCC(=O)NO)cc4)nc(N4CCOCC4)c3s2)CC1 | 
> 10000 | COc1cccc(Nc2nc(-c3cccc4[nH]ncc34)nc3cc(CN(C)c4ncc(C(=O)NO)cn4)sc23)c1 | 
< 100 | Nc1ccc(-c2nc(N3CCOCC3)c3sc(CN(CCO)c4ncc(C(=O)NO)cn4)cc3n2)cc1 | 
> 10000 | CN(Cc1cc2nc(-c3ccc4[nH]c(=O)[nH]c4c3)nc(N3CCOCC3)c2s1)c1ncc(C(=O)NO)cn1 | 
> 10000 | CCN(CC)c1ccc(-c2nc(N3CCOCC3)c3sc(CN(C)c4ncc(C(=O)NO)cn4)cc3n2)cc1 | 
< 100 | Nc1ccc(-c2nc(N3CCOCC3)c3sc(CN(CCO)c4ncc(C(=O)NO)cn4)cc3n2)cc1F | 
> 10000 | CN(Cc1cc2nc(-c3cccc4[nH]ncc34)nc(N3CCNCC3)c2s1)c1ncc(C(=O)NO)cn1 | 
> 10000 | COc1ccc(Nc2nc(-c3cccc4[nH]ncc34)nc3cc(CN(C)c4ncc(C(=O)NO)cn4)sc23)cc1 | 
< 100 | COc1ccc(-c2nc(N3CCOCC3)c3sc(NCCCCC(=O)NO)cc3n2)cn1 | 
< 100 | COc1ncc(-c2nc(N3CCOCC3)c3sc(CN(C)c4ncc(C(=O)NO)cn4)cc3n2)cn1 | 
> 10000 | CS(=O)(=O)N1CCN(Cc2cc3nc(-c4cccc5nn(CCCCCCC(=O)NO)cc45)nc(N4CCOCC4)c3s2)CC1 | 

IC50 (PIK3CA (human)) [nM] | SMILES | further results
100 to 1000 | COc1ccc(-c2nc(N3CCOCC3)c3sc(NS(=O)(=O)c4ccc(C=CC(=O)NO)cc4)cc3n2)cn1 | 
< 100 | CN(Cc1cc2nc(-c3ccc(N)c(O)c3)nc(N3CCOCC3)c2s1)c1ncc(C(=O)NO)cn1 | 
< 100 | Nc1ncc(-c2nc(N3CCOCC3)c3sc(NCCCCCC(=O)NO)cc3n2)cn1 | 
< 100 | CN(Cc1cc2nc(-c3ccc(N)c([N+](=O)[O-])c3)nc(N3CCOCC3)c2s1)c1ncc(C(=O)NO)cn1 | 
> 10000 | CS(=O)(=O)N1CCN(Cc2cc3nc(-c4cccc5nn(CCCCCC(=O)NO)cc45)nc(N4CCOCC4)c3s2)CC1 | 
> 10000 | CN(Cc1cc2nc(-c3ccc(OCCN)nc3)nc(N3CCOCC3)c2s1)c1ncc(C(=O)NO)cn1 | 
> 10000 | CN(Cc1cc2nc(-c3cccc4c3CC(=O)N4)nc(N3CCOCC3)c2s1)c1ncc(C(=O)NO)cn1 | 
> 10000 | CC(C)OC(=O)Nc1ccc(-c2nc(N3CCOCC3)c3sc(CN(C)c4ncc(C(=O)NO)cn4)cc3n2)cc1 | 
100 to 1000 | C[C@H](O)c1cccc(-c2nc(N3CCOCC3)c3sc(CN(C)c4ncc(C(=O)NO)cn4)cc3n2)c1 | 
< 100 | CN(Cc1cc2nc(-c3cccc4[nH]c(=S)[nH]c34)nc(N3CCOCC3)c2s1)c1ncc(C(=O)NO)cn1 | 
> 10000 | CNc1ccc(-c2nc(N3CCOCC3)c3sc(CN(C)c4ncc(C(=O)NO)cn4)cc3n2)cc1 | 
100 to 1000 | CN(Cc1cc2nc(-c3cccc(CCO)c3)nc(N3CCOCC3)c2s1)c1ncc(C(=O)NO)cn1 | 
< 100 | CC(O)c1cccc(-c2nc(N3CCOCC3)c3sc(CN(C)c4ncc(C(=O)NO)cn4)cc3n2)c1 (configuration not stated) | 
> 10000 | CS(=O)(=O)N1CCN(Cc2cc3nc(-c4cccc5c4cnn5CCCCCCC(=O)NO)nc(N4CCOCC4)c3s2)CC1 | 
> 10000 | CN(Cc1cc2nc(-c3ccc4c(c3)CC(=O)N4)nc(N3CCOCC3)c2s1)c1ncc(C(=O)NO)cn1 | 
< 100 | CNc1ccc(-c2nc(N3CCOCC3)c3sc(CN(C)Cc4nc5cc(C=CC(=O)NO)ccc5n4C)cc3n2)cn1 | 
< 100 | CNc1ccc(-c2nc(N3CCOCC3)c3sc(NCCCCC(=O)NO)cc3n2)cn1 | 
< 100 | COc1ccc(-c2nc(N3CCOCC3)c3sc(C(C)(C)Nc4ncc(C(=O)NO)cn4)cc3n2)cn1 | 
100 to 1000 | CCCc1nc2cc(C=CC(=O)NO)ccc2n1CCN(C)Cc1cc2nc(-c3ccc(N)cc3)nc(N3CCOCC3)c2s1 | 
< 100 | Cc1ncc(-c2nc(N3CCOCC3)c3sc(NCCCCC(=O)NO)cc3n2)cn1 | 
< 100 | CNc1ccc(-c2nc(N3CCOCC3)c3sc(S(=O)(=O)NCC4CCN(c5ncc(C(=O)NO)cn5)CC4)cc3n2)cn1 | 
< 100 | O=C(C=Cc1cccc(S(=O)(=O)Nc2cc3nc(-c4cccc5[nH]ncc45)nc(N4CCOCC4)c3s2)c1)NO | 
< 100 | Nc1ncc(-c2nc(N3CCOCC3)c3sc(NCCCC(=O)NO)cc3n2)cn1 | 
> 10000 | CC(=O)N1CCN(c2nc(-c3cccc4[nH]ncc34)nc3cc(CN(C)c4ncc(C(=O)NO)cn4)sc23)CC1 | 
100 to 1000 | CN(Cc1cc2nc(-c3ccc(O)nc3)nc(N3CCOCC3)c2s1)c1ncc(C(=O)NO)cn1 | 
100 to 1000 | CN(Cc1cc2nc(-c3cccc(C(=O)O)c3)nc(N3CCOCC3)c2s1)c1ncc(C(=O)NO)cn1 | 
100 to 1000 | CC(=NO)c1cccc(-c2nc(N3CCOCC3)c3sc(CN(C)c4ncc(C(=O)NO)cn4)cc3n2)c1 | 
